Results published in patent US20230371508A1, “COMPOSITIONS AND METHODS FOR KILLING INSECT AND NON-INSECT PESTS” (The United States of America, as represented by the …, priority 2018, published 2023).
Values after ≈ are worked out from the molar mass of the structure shown. “Also recorded” adds a separate entry of the source. Where two headings read alike, the source gives them in different places.

Legend:
H. halys nymphs = assay: Nymphicidal toxicity, treated filter paper in glass vial; type: in vivo
Procedure: Toxicities of MB, some compounds of formula 1, and commercial pesticides on H. halys nymphs: The bioassays were carried out in glass vials (20 mL), following a published procedure (Nielsen, A. L., et al., J. Econ. Entomol., 101: 1439-1442 (2008)). Filter paper was cut into round shape pieces (2.4 cm diameter). 50 μL acetone solution of one derivative or commercial pesticide with different concentrations was loaded onto the filter paper evenly, and the filter paper was dried for 1 min and then put into the bottom of vial. A small piece of green bean was put on the filter paper in the vial as food source. Different stages of H. halys nymphs were introduced into the vial and capped with a cotton ball. For each stage, 30 nymphs were used for each amount. For the nymphs of the first instar, 10 nymphs were put into 1 vial. For the nymphs of the second and third instar, 5 nymphs were put into 1 vial. For the nymphs of the fourth instar, 3 nymphs were put into 1 vial. For the nymphs of the fifth instar, 2 nymphs were put into 1 vial. The mortality was assessed after 24 hr.

L. dispar larvae = assay: Larvicidal toxicity, treated filter paper in Petri dish; type: in vivo; details: for LC50 (95% CL): 1st stage larvae, 24 hr; for larvicidal toxicity against L. dispar (in words): in vivo
Procedure: Toxicities of MB and some compounds of formula 1 on L. dispar larvae: The bioassays were carried out in plastic Petri dish loaded with filter paper, following a published procedure (Nielsen 2008). 600 μL acetone solution of one derivative with different concentrations was loaded onto the filter paper (90 mm diameter) evenly, and the filter paper was dried for 2 min and then put into the bottom of Petri dish. 10 L. dispar larvae were put onto the Petri dish and covered with a lid. 30 larvae were used for each amount. The mortality was assessed after 24 hr.

D. suzukii = assay: Insecticidal activity on larvae and pupae development and adult emergence in pre-infested blueberries (dip); type: in vivo, Drosophila suzukii; details: for Adults / Larvae / Pupae: pre-infested berries soaked 2 min in 1% solution, assessed after 10 days at room temperature, mean of three replicates (standard error); for insecticidal toxicity against D. suzukii (in words): 1% concentration on 4 days pre-infested blueberries, 10 days incubation
Procedure: Impacts of MB and other compounds on D. suzukii control: To investigate the acute toxicity of some compounds of formula 1 against D. suzukii, a published procedure was followed (Cuthbertson, A. G. S., et al., Insects, 5: 488-498 (2014)). First, mixed-sex adults D. suzukii (100) were introduced into a plastic cage (30×30×30 cm) and reared on blueberries (100) for 4 days. After that, the infested blueberries were taken out from the cage. Half of the blueberries (50) were dipped in 100 mL aqueous emulsion of each compound listed in Table 1 at 1% concentration for 2 min as treatment, while the other half of the blueberries (50) were dipped in DI water for 2 min as blank control. Then the corresponding blueberries were separately taken out, placed in two different Petri dishes, and allowed to air dry for 2 h. Second, treatment and blank control blueberries were respectively stored in two plastic cups (32 oz) with closed caps and incubated at room temperature for 10 days. The emergence of adults was then subsequently assessed. The developments of larvae and pupae were further inspected by dissection of the treatment and blank control berries. Each treatment and blank control was repeated three times.

H. halys eggs = assay: Ovicidal toxicity, direct spray on eggs; type: in vivo; details: eggs sprayed, 10 days
From the text: Ovicidal toxicities of MB and some compounds of formula 1: The aqueous solutions of one of the compounds of formula 1 with designated concentrations with different concentrations of active ingredient (AI) were separately stored in glass spray bottles according to a published procedure (Cuthbertson 2014). The eggs (10 for H. halys and 100 for P. xylostella) were laid on filter papers in Petri dishes. Different aqueous insecticidal solutions were sprayed on the surfaces of different eggs three times (˜0.5 mL) to completely cover the treatment areas. Then the Petri dishes were covered with lids and maintained in a fume hood for 10 days. The Petri dishes were then inspected for presence of nymph/larvae development or numbers of unhatched eggs.

S. invicta workers [1] = assay: Fumigant toxicity in sealed glass flask; type: in vivo, Solenopsis invicta; details: for mortality at 1.43 µg/mL / LC50: Solenopsis invicta; for mortality at 1.43 µg/mL: read-out: mean mortality, dosage 1.43 μg/ml, 24 h
Procedure: A 250-ml glass flask (the whole volume is 280 ml) was used to house worker ants in fumigant toxicity bioassays. Two micro-liter of acetone solution of the tested compound was applied onto a paraffin film, which was used to seal the flask with ants. The treated spot of the paraffin film faced the inside of the flask. The upper part of the flask was coated with Fluon® to prevent ants from contacting the test material. Two experiments were conducted. […] LC50 value was established using 5 dosages. Each dosage was replicated 3 times for each of 3 colonies. Each replicate consisted of 15 to 26 ants. Ants that could not stand by themselves were considered dead. Dead ants were counted after 24 h.

S. invicta workers [2] = details: for contact toxicity against S. invicta (in words): in vivo
Procedure: Fire ant bioassays were conducted in USDA, ARS Stoneville laboratory at 25° C., 80% R.H. with a 12:12 (L:D) photoperiod. Contact toxicities of MB and some compounds of formula 1 against fire ants: Topical application was used for contact toxicity bioassay. Only large workers were used for a purpose of relatively uniform body weight and ease of handling. For all compounds, acetone was used as a solvent. The solution was applied using a 0.779 μl capillary tube. Two experiments were conducted for assessing contact toxicity. […] In order to investigate the structure-activity relationship, LD50 values were also established for MB and EB. […] For each LD50 value, 5 doses of benzoates were used. Each dose was replicated 3 times. Each replicate consisted of 13 to 18 ants. Treated ants were placed in a 30-ml capped cup and dead ants were counted after 24 h.

Compound	LC50 (95% CL) (H. halys nymphs; 2nd stage nymphs, 24 hr)	LC50 (95% CL) (H. halys nymphs; 3rd stage nymphs, 24 hr)	LC50 (95% CL) (L. dispar larvae)	Adults (D. suzukii)	Larvae (D. suzukii)	Pupae (D. suzukii)	toxicity against H. halys nymphs (in words) (H. halys nymphs; in vivo)	LC50 (95% CL) (H. halys eggs)	mortality at 1.43 µg/mL (S. invicta workers [1]; 24 h)	insecticidal toxicity against D. suzukii (in words) (D. suzukii)	LD50 (S. invicta workers [2]; colony 1, 24 h)	LD50 (S. invicta workers [2]; colony 2, 24 h)	LD50 (S. invicta workers [2]; colony 3, 24 h)	other results
C/C(=N\C#N)N(C)Cc1ccc(Cl)nc1 [AP, acetamiprid, reference compound]	0.257 (0.169-0.340) μL/vial	0.475 (0.301-0.641) μL/vial	0.221 (0.167-0.291) mg/cm^2											LC50 (95% CL) (H. halys nymphs; 5th stage nymphs, 24 hr): 1.414 (1.165-1.642) μL/vial; LC50 (95% CL) (L. dispar larvae; listed as acetamiprid): 0.221 mg/cm^2
COC(=O)c1ccccc1[N+](=O)[O-] [M2NB, methyl 2-nitrobenzoate]				0	0	0	ineffective	0.010 (0.002-0.019) mg/cm^2	0%					larvicidal toxicity against L. dispar (in words) (L. dispar larvae): did not show any toxicities
CCCOC(=O)c1ccccc1 [nPrB, n-propyl benzoate]		2.591 (2.086-3.839) μL/vial	0.159 (0.135-0.199) mg/cm^2	3.0(0.6)	1.7(0.3)	4.0(0.6)			79.4%	good insecticidal toxicity	109.89 μg/ant	109.26 μg/ant		increase of mean mortality compared with MB (S. invicta workers [2]; dose 77.9 μg/ant, 24 h): 6 times; mean mortality (S. invicta workers [2]; dose 77.9 μg/ant, 24 h): 45.5%
COC(=O)c1cccc(C)c1 [M3MB, methyl 3-methylbenzoate]			0.102 (0.083-0.121) mg/cm^2	0	0	0		0.016 (0.009-0.024) mg/cm^2	~100%		70.32 μg/ant	107.48 μg/ant	67.73 μg/ant	LC50 (95% CL) (H. halys nymphs; 4th stage nymphs, 24 hr): 2.433 (2.000-3.417) μL/vial; LC50 (S. invicta workers [1]; 24 h, colony 1, 24 h): 0.62 µg/mL (≈ 4.13 µM); LC50 (S. invicta workers [1]; 24 h, colony 2, 24 h): 0.7 µg/mL (≈ 4.66 µM); LC50 (S. invicta workers [1]; 24 h, colony 3, 24 h): 0.63 µg/mL (≈ 4.2 µM); LC50 (S. invicta workers [1]; 24 h, read-out: mean LC50 value, mean over colonies, 24 h): 0.65 µg/mL (≈ 4.33 µM)
CCCCOC(=O)c1ccccc1 [nBB, n-butyl benzoate]			0.276 (0.223-0.393) mg/cm^2	25.3(1.5)	4.7(1.2)	15.0(2.9)			2.34%		77.13 μg/ant	68.51 μg/ant	50.04 μg/ant	LC50 (95% CL) (H. halys nymphs; 4th stage nymphs, 24 hr): 3.370 (2.441-6.922) μL/vial; contact toxicity against S. invicta (in words) (S. invicta workers [2]): comparable results; also recorded: potent contact toxicities; decrease of mean mortality compared with MB (S. invicta workers [1]; dosage 1.43 μg/ml, 24 h): 42 times
COC(=O)c1ccccc1Cl [M2CB, methyl 2-chlorobenzoate]	1.302 (1.137-1.610) μL/vial		0.130 (0.097-0.159) mg/cm^2	0	0	0		0.011 (0.008-0.013) mg/cm^2	70 to 80%					LC50 (S. invicta workers [1]; 24 h, colony 1, 24 h): 0.89 µg/mL (≈ 5.22 µM); LC50 (S. invicta workers [1]; 24 h, colony 2, 24 h): 0.77 µg/mL (≈ 4.51 µM); LC50 (S. invicta workers [1]; 24 h, colony 3, 24 h): 0.56 µg/mL (≈ 3.28 µM); mean mortality (S. invicta workers [1]; dosage 1.43 μg/ml, 24 h): 79.4%
O=C(OCc1ccccc1)c1ccccc1 [BB, benzyl benzoate]				40.0(8.4)	5.7(0.7)	40.0(5.8)	deficient toxicities			poor toxicities				LC50 (95% CL) (H. halys nymphs; in vivo): 5.619 (3.028-44.599) μL/vial; contact toxicity against S. invicta (in words) (S. invicta workers [2]): potent contact toxicities; larvicidal toxicity against L. dispar (in words) (L. dispar larvae): did not show any toxicities
CC(C)COC(=O)c1ccccc1 [iBB, iso-butyl benzoate]		4.890 (2.845-24.779) μL/vial	0.193 (0.165-0.234) mg/cm^2	24.7(0.9)	6.0(1.5)	15.7(1.9)	deficient toxicities			poor toxicities	80.07 μg/ant	96.57 μg/ant	55.75 μg/ant	
COC(=O)c1ccccc1C [M2MB, methyl 2-methylbenzoate]	0.974 (0.827-1.109) μL/vial		0.155 (0.134-0.174) mg/cm^2	0	0	0		0.014 (0.005-0.027) mg/cm^2	70 to 80%					fumigant toxicity against S. invicta (in words) (S. invicta workers [1]; in vivo): significantly reduced
CC(COc1ccc(Oc2ccccc2)cc1)Oc1ccccn1 (centres unmarked) [PF, pyriproxyfen, reference compound]		1.798 (1.397-2.797) μL/vial	0.086 (0.057-0.124) mg/cm^2											LC50 (95% CL) (H. halys nymphs; 5th stage nymphs, 24 hr): 2.700 (1.881-4.836) μL/vial; LC50 (95% CL) (L. dispar larvae; listed as pyriproxyfen): 0.086 mg/cm^2
